Test in all cases: Pull-down assay with immobilized protein and LSM libraries
One experiment concerns the target T1, CaM (Bos taurus, UniProt P62157).
T1 construct: made in house; host or cells: E. coli BL21 (DE3)
Format: binding, bovine. The note with it: 1:2 stoichiometry assumed, read-out: Surface mapping KD (apparent). On the procedure:
Pull-down assays with immobilized test proteins and foldameric LSM libraries were carried out. Proteins were equilibrated with LSM probes, and equilibrium bound fractions (FB) were determined from the unbound fractions measured by HPLC-MS methods. Hits were corrected with background binding of the resin. The protocol allowed all binding events to equilibrate irrespective of affinity, specificity, and binding kinetics. This was essential to judge overall druggability and promiscuity. Importantly, the concentration of protein and the total concentration of foldameric LSMs were equimolar, which minimized competition between the probes. This experimental setup approximated independent binding of individual library members. Results were visualized as heat maps of dissociation constants (Fig. 3).
Pull-down assay and data analysis
Pull-down assay. LSM sublibraries were screened separately as previously described.(2) Experiments were performed in the following buffers: (i) 20 mM pH 7.4 HEPES, 150 mM NaCl, 5 mM CaCl2 for CaM; (ii) 50 mM pH 7.4 HEPES, 150 mM NaCl, 1 mM TCEP, 1 mM CaCl2 for S100 proteins; (iii) 20 mM pH 7.4 HEPES, 150 mM NaCl, 1 mM TCEP for Gal-1 and (iv) 20 mM pH 7.4 HEPES, 150 mM NaCl for RecQ-WH. Assays were performed in paper filter spin cups (Thermo Scientific) with sample volumes of 100 µl. Hexahistidine-tagged proteins were immobilized on previously washed Co-NTA resin (TALON, Takara Bio USA, Inc., […]
LSM sublibrary was added, in which each of the 64 library members were used at a concentration of 1 µM. Samples were incubated at room temperature for 30 min with shaking at 100 rpm. Then, samples were centrifuged at 1000 rpm for 2 min and washed with 100 µl pull-down buffer to remove unbound compounds.
The control experiments were performed using the same compounds and the resin but without the immobilized protein. In case of competitive assays, competitor peptides were added to LSM sublibrary samples in 200 µM final concentration. In the case of Gal-1, lactose (competitor) was used in a concentration of 10 mM. Experiments were performed at least twice. Mean […]
LC-MS methods and parameters. HPLC/ESI-MS analysis was used to characterize the samples from the pull-down assay. LC-MS analysis was performed with a Thermo Scientific Dionex UltiMate 3000 HPLC system interfaced to an LTQ ion trap mass spectrometer (Thermo Electron Corp., San Jose, CA, USA). Samples were injected onto an Aeris Widepore XB-C18 (250 x 4.6 mm) analytical HPLC column using gradient elution 5-80 % solution B during 25 minutes. For pull-down samples, eluent composition was 0.1% acetic acid in distilled water (Solution A) and 0.1% acetic acid in acetonitrile (solution B). Mass spectra were acquired in full scan mode from 200 to 2000 m/z range. For overlapping peaks, selective reaction monitoring (SRM) was […]
MS data analysis. Thermo Xcalibur 2.2 software was used for peak identification and integration. The majority of the foldameric fragments could be resolved independently via HPLC-MS/MS measurements based on molecular weight, MS fragmentation pattern and retention time. Peaks of some foldamers with β3-hIle or β3-hLeu in position R2 could not be resolved, these were integrated and averaged. In the processing method, each sample component was associated to a chromatographic peak based on previously identified mass (m/z) and retention time (ref (2) and Table S7-10). Using ICIS peak detection algorithm, the general detection and integration criteria were: smoothing points: 5, baseline window: 80, area noise factor: 5, peak noise factor: 10. Using these processing setups, all raw data files were reprocessed together and analyzed. Errors in peak identification during the automatic processing were corrected manually.
Calculation of the discussed parameters
1. Bound fractions (FB.) were calculated from the HPLC-MS intensity loss of the LSM probes compared to the control where no protein was immobilized to the resin: […]

The next experiment has as its target T2, S100B (Homo sapiens, UniProt P04271).
T2 construct: made in house; host or cells: Escherichia coli BL21(DE3)
T2 sequence (P04271 1-92): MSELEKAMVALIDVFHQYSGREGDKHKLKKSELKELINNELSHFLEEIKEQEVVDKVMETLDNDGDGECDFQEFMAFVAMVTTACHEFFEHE
Format: binding. The note with it: H12 library; 1:1 binding assumed; read-out: Surface mapping KD (apparent). In outline: (§1)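 Buffers were HEPES pH 7.4 with 150 mM NaCl, plus 1 mM TCEP and 1 mM CaCl2 (50 mM HEPES) for S100A4 and S100B, 1 mM TCEP for Gal-1, and no additive for RecQ-WH. Immobilized protein at 64 µM was equilibrated 30 min with the LSM sublibrary, and unbound probes were measured by LC-MS.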

The target in another experiment is T3, Gal-1 (Homo sapiens, UniProt P09382).
T3 construct: made in house; host or cells: E. coli BL21(DE3)
In kind it is binding. The note with it: H14 library; 1:1 binding assumed; read-out: Surface mapping KD (apparent). The essentials: as §1

SMILES strings stand for the structures. Where two headings read alike, the source gives them in different places.

T3 sequence (P09382 whole entry): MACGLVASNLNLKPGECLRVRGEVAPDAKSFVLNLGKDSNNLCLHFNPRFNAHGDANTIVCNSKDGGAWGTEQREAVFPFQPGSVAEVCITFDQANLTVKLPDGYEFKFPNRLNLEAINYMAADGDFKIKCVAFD

Consider `NC(=O)C[C@@H](CC(=O)N[C@H]1CCC[C@@H]1C(=O)N[C@H]1CCC[C@@H]1C(=O)N[C@H](CC(=O)N[C@H]1CCC[C@@H]1C(=O)N[C@H]1CCC[C@@H]1C(N)=O)Cc1ccccc1)NC(=O)[C@H]1CCC[C@@H]1NC(=O)[C@H]1CCC[C@@H]1N` [H12 NF], for which the Kd on CaM (H12 library) came out at 162 µM; at S100B, 368 µM.

As for `NC(=O)C[C@@H](CC(=O)N[C@H]1CCC[C@@H]1C(=O)N[C@H]1CCC[C@@H]1C(=O)N[C@H](CC(=O)N[C@H]1CCC[C@@H]1C(=O)N[C@H]1CCC[C@@H]1C(N)=O)Cc1c[nH]c2ccccc12)NC(=O)[C@H]1CCC[C@@H]1NC(=O)[C@H]1CCC[C@@H]1N` [H12 NW], the Kd amounted to 63 µM on CaM (H12 library) and 155 µM on S100B.

`NC(=O)CC[C@@H](CC(=O)N[C@H]1CCC[C@@H]1C(=O)N[C@H]1CCC[C@@H]1C(=O)N[C@H](CC(=O)N[C@H]1CCC[C@@H]1C(=O)N[C@H]1CCC[C@@H]1C(N)=O)Cc1ccccc1)NC(=O)[C@H]1CCC[C@@H]1NC(=O)[C@H]1CCC[C@@H]1N` [H12 QF]: the Kd on CaM (H12 library) turned out to be 181 µM; on S100B, 461 µM.

For the molecule `NC(=O)CC[C@@H](CC(=O)N[C@H]1CCC[C@@H]1C(=O)N[C@H]1CCC[C@@H]1C(=O)N[C@H](CC(=O)N[C@H]1CCC[C@@H]1C(=O)N[C@H]1CCC[C@@H]1C(N)=O)Cc1ccc(O)cc1)NC(=O)[C@H]1CCC[C@@H]1NC(=O)[C@H]1CCC[C@@H]1N` [H12 QY], on CaM (H12 library), the Kd was 403 µM.

For `C[C@@H](CC(=O)N[C@H]1CCC[C@@H]1C(=O)N[C@H]1CCC[C@@H]1C(N)=O)NC(=O)[C@H]1CCC[C@@H]1NC(=O)[C@H]1CCC[C@@H]1NC(=O)C[C@H](CO)NC(=O)[C@H]1CCC[C@@H]1NC(=O)[C@H]1CCC[C@@H]1N` [H12 SA], the Kd on CaM (H12 library) is 482 µM.

Regarding `NC(=O)[C@H]1CCC[C@@H]1NC(=O)[C@H]1CCC[C@@H]1NC(=O)C[C@H](CC(=O)O)NC(=O)[C@H]1CCC[C@@H]1NC(=O)[C@H]1CCC[C@@H]1NC(=O)C[C@H](CO)NC(=O)[C@H]1CCC[C@@H]1NC(=O)[C@H]1CCC[C@@H]1N` [H12 SD], the Kd on CaM (H12 library) was found to be 441 µM.

In the case of `NC(=O)[C@H]1CCC[C@@H]1NC(=O)[C@H]1CCC[C@@H]1NC(=O)C[C@H](Cc1ccccc1)NC(=O)[C@H]1CCC[C@@H]1NC(=O)[C@H]1CCC[C@@H]1NC(=O)C[C@H](CO)NC(=O)[C@H]1CCC[C@@H]1NC(=O)[C@H]1CCC[C@@H]1N` [H12 SF], the Kd was 153 µM on CaM (H12 library) and 189 µM on S100B.

Turning to `CSCC[C@@H](CC(=O)N[C@H]1CCC[C@@H]1C(=O)N[C@H]1CCC[C@@H]1C(N)=O)NC(=O)[C@H]1CCC[C@@H]1NC(=O)[C@H]1CCC[C@@H]1NC(=O)C[C@H](CO)NC(=O)[C@H]1CCC[C@@H]1NC(=O)[C@H]1CCC[C@@H]1N` [H12 SM], the Kd at CaM (H12 library) is 340 µM.

`NC(=O)C[C@@H](CC(=O)N[C@H]1CCC[C@@H]1C(=O)N[C@H]1CCC[C@@H]1C(N)=O)NC(=O)[C@H]1CCC[C@@H]1NC(=O)[C@H]1CCC[C@@H]1NC(=O)C[C@H](CO)NC(=O)[C@H]1CCC[C@@H]1NC(=O)[C@H]1CCC[C@@H]1N` [H12 SN]: the Kd at CaM (H12 library) is 493 µM.

Regarding `NC(=O)[C@H]1CCC[C@@H]1NC(=O)[C@H]1CCC[C@@H]1NC(=O)C[C@H](CO)NC(=O)[C@H]1CCC[C@@H]1NC(=O)[C@H]1CCC[C@@H]1NC(=O)C[C@H](CO)NC(=O)[C@H]1CCC[C@@H]1NC(=O)[C@H]1CCC[C@@H]1N` [H12 SS], at CaM (H12 library), the Kd is 480 µM.

Regarding `CC(C)[C@@H](CC(=O)N[C@H]1CCC[C@@H]1C(=O)N[C@H]1CCC[C@@H]1C(N)=O)NC(=O)[C@H]1CCC[C@@H]1NC(=O)[C@H]1CCC[C@@H]1NC(=O)C[C@H](CO)NC(=O)[C@H]1CCC[C@@H]1NC(=O)[C@H]1CCC[C@@H]1N` [H12 SV], the Kd at CaM (H12 library) came out at 299 µM.

For `NC(=O)[C@H]1CCC[C@@H]1NC(=O)[C@H]1CCC[C@@H]1NC(=O)C[C@H](Cc1ccc(O)cc1)NC(=O)[C@H]1CCC[C@@H]1NC(=O)[C@H]1CCC[C@@H]1NC(=O)C[C@H](CO)NC(=O)[C@H]1CCC[C@@H]1NC(=O)[C@H]1CCC[C@@H]1N` [H12 SY], the Kd on CaM (H12 library) was 351 µM.

As for `C[C@@H](CC(=O)N[C@H]1CCC[C@@H]1C(=O)N[C@H]1CCC[C@@H]1C(N)=O)NC(=O)[C@H]1CCC[C@@H]1NC(=O)[C@H]1CCC[C@@H]1NC(=O)C[C@@H](NC(=O)[C@H]1CCC[C@@H]1NC(=O)[C@H]1CCC[C@@H]1N)[C@@H](C)O` [H12 TA], on CaM (H12 library), the Kd turned out to be 392 µM.

Regarding `CC[C@H](C)[C@@H](CC(=O)N[C@H]1CCC[C@@H]1C(=O)N[C@H]1CCC[C@@H]1C(N)=O)NC(=O)[C@H]1CCC[C@@H]1NC(=O)[C@H]1CCC[C@@H]1NC(=O)C[C@@H](NC(=O)[C@H]1CCC[C@@H]1NC(=O)[C@H]1CCC[C@@H]1N)[C@@H](C)O` [H12 TI], on CaM (H12 library), the Kd turned out to be 110 µM.

With `CC(C)C[C@@H](CC(=O)N[C@H]1CCC[C@@H]1C(=O)N[C@H]1CCC[C@@H]1C(N)=O)NC(=O)[C@H]1CCC[C@@H]1NC(=O)[C@H]1CCC[C@@H]1NC(=O)C[C@@H](NC(=O)[C@H]1CCC[C@@H]1NC(=O)[C@H]1CCC[C@@H]1N)[C@@H](C)O` [H12 TL], the Kd on CaM (H12 library) is 110 µM.

In the case of `CSCC[C@@H](CC(=O)N[C@H]1CCC[C@@H]1C(=O)N[C@H]1CCC[C@@H]1C(N)=O)NC(=O)[C@H]1CCC[C@@H]1NC(=O)[C@H]1CCC[C@@H]1NC(=O)C[C@@H](NC(=O)[C@H]1CCC[C@@H]1NC(=O)[C@H]1CCC[C@@H]1N)[C@@H](C)O` [H12 TM], at CaM (H12 library), the Kd was determined as 200 µM.

Turning to `C[C@@H](O)[C@@H](CC(=O)N[C@H]1CCC[C@@H]1C(=O)N[C@H]1CCC[C@@H]1C(=O)N[C@@H](CCC(N)=O)CC(=O)N[C@H]1CCC[C@@H]1C(=O)N[C@H]1CCC[C@@H]1C(N)=O)NC(=O)[C@H]1CCC[C@@H]1NC(=O)[C@H]1CCC[C@@H]1N` [H12 TQ], the Kd on CaM (H12 library) is 447 µM.

For the molecule `CC(C)[C@@H](CC(=O)N[C@H]1CCC[C@@H]1C(=O)N[C@H]1CCC[C@@H]1C(N)=O)NC(=O)[C@H]1CCC[C@@H]1NC(=O)[C@H]1CCC[C@@H]1NC(=O)C[C@@H](NC(=O)[C@H]1CCC[C@@H]1NC(=O)[C@H]1CCC[C@@H]1N)[C@@H](C)O` [H12 TV], the Kd at CaM (H12 library) amounted to 208 µM.

On to `C[C@@H](O)[C@@H](CC(=O)N[C@H]1CCC[C@@H]1C(=O)N[C@H]1CCC[C@@H]1C(=O)N[C@H](CC(=O)N[C@H]1CCC[C@@H]1C(=O)N[C@H]1CCC[C@@H]1C(N)=O)Cc1ccc(O)cc1)NC(=O)[C@H]1CCC[C@@H]1NC(=O)[C@H]1CCC[C@@H]1N` [H12 TY], for which, at CaM (H12 library), the Kd stood at 132 µM.

For `NC(=O)[C@H]1CCCC[C@@H]1NC(=O)C[C@H](CC(=O)O)NC(=O)[C@H]1CCCC[C@@H]1NC(=O)[C@H]1CCCC[C@@H]1NC(=O)C[C@H](CO)NC(=O)[C@H]1CCCC[C@@H]1N` [H14 SD], the Kd on CaM (H14 library) was found to be 225 µM; at Gal-1 it was 432 µM.

Source of the values: PMC8162404, “Proteomimetic surface fragments distinguish targets by function” (Chemical Science, 2020).
